The results in this text go back to patent publication US20230089368A1, “POLYAROMATIC UREA DERIVATIVES AND THEIR USE IN THE TREATMENT OF MUSCLE DISEASES” (ANAGENESIS BIOTECHNOLOGIES S.A.S., priority 2019, published 2023).

Assay [1] has as its system muscle progenitors (hMP) from DMD hiPSC or WT hiPSC. Description: Myotube assay: myogenic activity (total myotube area per well). To be noted: Homo sapiens, 72 h, myotube assay, compounds incubated 3 days; for Emax: read-out: MA (normalized Myotube Area, efficacy). The class given is cell-based, human. The method, then: An in vitro assay for assessing the efficacy of compounds for use in treating, ameliorating, delaying, curing and/or preventing a disease or condition associated with muscle cells and/or satellite cells is described in example 78. Herein, the generation of myotubes and satellite cells after adding a compound to a myotube assay workflow is assessed. Said myotube assay workflow is derived from wild-type or DMD human induced pluripotent stem cells (WT hiPSC or DMD hiPSC). Before the addition of said compound, the assay comprises satellite-like cells, but no significant amount of myotubes.
(§1) The efficacy of said compound for use in treating, ameliorating, delaying, curing and/or preventing a disease or condition associated with muscle cells and/or satellite cells is positively correlated with the generation of myotubes (i.e. the increase of the area occupied by myotubes on the assay) and/or satellite cells (i.e. the increase of the number of satellite cells) in the assay after adding said compound. The generation of myotubes by the addition of said compound is expressed as the EC50 value, the concentration of said compound that corresponds with the half-maximal generation of myotubes, and the MA (normalized myotube area) value, the normalized area occupied by generated myotubes on the assay. […] Since muscle cells are formed from myotubes during myogenesis, the generation of myotubes in the assay is a good indicator of the ability of said compound to induce the formation of functional muscle cells in vivo. The number of satellite cells is measured as the percentage of Pax7 positive cells, relative to the total number of cells in the assay, as shown in FIG. 3. The percentage of Pax7 is a good indicator of the ability of said compound to induce the formation of satellite cells which are able to play a role in muscle repair and regeneration in vivo.
(§2) DMD human induced pluripotent stem cells (hereafter “DMD hiPSC”), generated from the NORM-1 hiPSC WT cell line by gene editing, or WT human induced pluripotent stem cells (hereafter “WT hiPSC”), being NORM-1 hiPSC wt cell line, have been differentiated according to Chal et al. 2015, 2016, to produce muscle progenitors (hereafter “hMP”). The hMP population contains satellite-like cells (i.e Pax7-positive cells) and satellite cells' progenies (i.e. Myogenin-positive cells).
(§3) FIG. 1 provides an example of a Myotube assay workflow. At day 0, hMP are thawed and 3.1 million cells are plated into a T75-flask coated with hESC-qualified Matrigel™ (Corning) in SkGM proliferating medium (PromoCells), supplemented with 5 μM Y-27632 (Tocris Bioscience). On day 2, SkGM proliferating medium is refreshed. On day 4, hMP are harvested and transferred into a 384-well plate coated with collagen type I at a density of 3500 cells/well in a DMEM-based medium, containing 5% of knockout serum replacement (Gibco), 1% PenStrep (Gibco), 1% MEM NEAA (Gibco) and 0.1 mM 2-mercaptoethanol (Gibco) (hereafter “K5 medium”) and 5 μM Y-27632. Compounds to be tested are then added in the medium and incubated for 3 days at 37° C. On day 7, cells are fixed and immunostained. For example, myotubes (alpha-actinin staining) and satellite-like (Pax7 staining) cells can be analyzed for total myotube area per well or Pax7-positive cell quantification.
DMD hMP were put in the Myotube assay according to the workflow described in Example 2.1. In particular, compound (i) was added at concentrations ranging from 1.5 nM to 30 μM, starting from day 4. hMP were cultivated for three more days in presence of compound (i), then fixed and analyzed for quantification of total myotube area per well. Duplicates of each condition were averaged.
Qualitative scale: ++++: EC50<500 nM; +++: 500 nM≤EC50<1000 nM; ++: 1000 nM≤EC50<5000 nM; +: EC50≥5000 nM; +++: MA≥75%; ++: 50%≤MA<75%; +: 25%≤MA<50%.

Assay [2] deals with satellite-like cells (Pax7-positive cells) in hMP. Description: Myotube assay: Pax7-positive (satellite-like) cell quantification. More on the design: key to Pax7% (pool of Pax7-positive cells) / Pax7: −: Depletes the pool of cells, while positively affects the myotubes; +: Maintains or increases the pool of cells, with at least 1 of the highest concentration known to be cytotoxic; ++: Maintains or increases the pool of cells, without any toxicity. To be noted: myotube assay, compounds incubated 3 days. It counts as cell-based, human.
From the text: as §1, §2, §3
DMD hMP were put in the Myotube assay according to the workflow described in Example 2.1. In particular, compound (i) was added at concentrations ranging from 1.5 nM to 30 μM, starting from day 4. hMP were cultivated for three more days in presence of compound (i), then fixed and analyzed for percentage of Pax7-positive cells and nuclei number. Duplicates of each condition were averaged.
(−): Depletes the pool of cells, while positively affects the myotubes; (+): Maintains or increases the pool of cells, with at least 1 of the highest concentration known to be cytotoxic; and (++) Maintains or increases the pool of cells, without any toxicity.

For `CSc1cc(Oc2ccnc3[nH]c(=O)cnc23)ccc1NC(=O)Nc1cc(C(C)(C)C)nn1CCN(C)C` [(bg), 1-(3-(tert-butyl)-1-(2-(dimethylamino)ethyl)-1H-pyrazol-5-yl)-3-(2-(methylthio)-4-((3-oxo-3,4-dihydropyrido[2,3-b]pyrazin-8-yl)oxy)phenyl)urea], the EC50 in assay [1] (10 points dose-response 1.5 nM to 30 μM, read-out: EC50 (myogenic activity, half-maximal generation of myotubes)) is no less than 5 µM. Also, in assay [1], the Emax is no less than 75%. Also, in assay [2], the “Pax7% (pool of Pax7-positive cells)” value was “++”.

With `CSc1cc(Oc2ccnc3[nH]c(=O)cnc23)ccc1NC(=O)Nc1cc(C(C)(C)C)nn1CCCN1CCOCC1` [(bh), 1-(3-(tert-butyl)-1-(3-morpholinopropyl)-1H-pyrazol-5-yl)-3-(2-(methylthio)-4-((3-oxo-3,4-dihydropyrido[2,3-b]pyrazin-8-yl)oxy)phenyl)urea], the Emax in assay [1] is no less than 75%. In assay [2], the “Pax7% (pool of Pax7-positive cells)” value was “++”.

Consider `CSc1cc(Oc2ccnc(NC(=O)OC(C)(C)C)c2)ccc1NC(=O)Nc1cc(C(C)(C)C)nn1-c1ccccc1` [(bi), tert-butyl N-[4-{4-[(5-tert-butyl-2-phenyl-pyrazol-3-yl)carbamoylamino]-3-methylsulfanyl-phenoxy}-2-pyridyl]carbamate], for which the Emax in assay [1] is no less than 75%. The “Pax7% (pool of Pax7-positive cells)” value in assay [2] is “++”.

In the case of `CSc1cc(Oc2ccnc(N)c2)ccc1NC(=O)Nc1cc(C(C)(C)C)nn1-c1ccccc1.Cl` [(bj), 1-(4-((2-aminopyridin-4-yl)oxy)-2-(methylthio)phenyl)-3-(3-(tert-butyl)-1-phenyl-1H-pyrazol-5-yl)urea hydrochloride], in assay [1], the Emax is no less than 75%. For the same compound, the “Pax7% (pool of Pax7-positive cells)” value in assay [2] is recorded as “++”.

On to `CC(C)c1cc(Oc2ccnc3[nH]c(=O)cnc23)ccc1NC(=O)Nc1cc(C(C)(C)C)nn1-c1ccccc1` [(bk), 1-(3-(tert-butyl)-1-phenyl-1H-pyrazol-5-yl)-3-(2-isopropyl-4-((3-oxo-3,4-dihydropyrido[2,3-b]pyrazin-8-yl)oxy)phenyl)urea], for which the Emax in assay [1] was no less than 75%. In addition, the “Pax7% (pool of Pax7-positive cells)” value in assay [2] is “++”.

On to `CC(C)(C)c1cc(NC(=O)Nc2ccc(Oc3ccncc3)cc2)n(-c2ccccc2)n1` [(bl), 1-(3-(tert-butyl)-1-phenyl-1H-pyrazol-5-yl)-3-(4-(pyridin-4-yloxy)phenyl)urea], for which the Emax in assay [1] lay within 50 to 75%. Also, in assay [2], the “Pax7% (pool of Pax7-positive cells)” value was “+”.

For the compound `CSc1cc(Oc2ccnc3[nH]c(=O)cnc23)ccc1NC(=O)Nc1cc(C(C)(C)C)nn1-c1ccc2ncccc2c1` [(bm), 1-(3-(tert-butyl)-1-(quinolin-6-yl)-1H-pyrazol-5-yl)-3-(2-(methylthio)-4-((3-oxo-3,4-dihydropyrido[2,3-b]pyrazin-8-yl)oxy)phenyl)urea], the Emax in assay [1] is no less than 75%. In assay [2], the “Pax7% (pool of Pax7-positive cells)” value is given as “+”.

Turning to `CSc1cc(Oc2ccnc3[nH]c(=O)cnc23)ccc1NC(=O)Nc1cc(C(C)(C)C)nn1C1CCCCC1` [(bn), 1-(3-(tert-butyl)-1-cyclohexyl-1H-pyrazol-5-yl)-3-(2-(methylthio)-4-((3-oxo-3,4-dihydropyrido[2,3-b]pyrazin-8-yl)oxy)phenyl)urea], the Emax in assay [1] is 50 to 75%. Also, the “Pax7% (pool of Pax7-positive cells)” value in assay [2] is reported as “++”.

For `CC(C)(C)c1cc(NC(=O)Nc2ccc(Oc3ccnc4[nH]c(=O)cnc34)c(F)c2F)n(-c2ccccc2)n1` [(bo), 1-(3-(tert-butyl)-1-phenyl-1H-pyrazol-5-yl)-3-(2,3-difluoro-4-((3-oxo-3,4-dihydropyrido[2,3-b]pyrazin-8-yl)oxy)phenyl)urea], the Emax in assay [1] was no less than 75%. The “Pax7% (pool of Pax7-positive cells)” value in assay [2] is “+”.

For the compound `CSc1cc(Oc2ccnc(NC(=O)CN(C)C(=O)OC(C)(C)C)c2)ccc1NC(=O)Nc1cc(C(C)(C)C)nn1-c1ccccc1` [(bp), tert-butyl (2-((4-(4-(3-(3-(tert-butyl)-1-phenyl-1H-pyrazol-5-yl)ureido)-3-(methylthio)phenoxy)pyridin-2-yl)amino)-2-oxoethyl)(methyl)carbamate], the Emax in assay [1] was no less than 75%. Also, the “Pax7% (pool of Pax7-positive cells)” value in assay [2] is “+”.
